According to US10894817B2, “Fatty acid modified urocortin-2 analogs for the treatment of diabetes and chronic kidney disease” (priority 2016, dated 2021):
Starred links: 1 amine or outer side, 2 acyl side, 3 side chain; linkers in the order of their positions; H or OH if unused. Residues, ends and D or L forms follow the SMILES beside them. Groups on a side chain read outwards from the residue. *: point of attachment. γGlu = O=C(O)[C@H](CCC(=O)[*:2])N[*:1]; Palmitoyl = CCCCCCCCCCCCCCCC(=O)*

Molecular target: T1, human CRHR2b (Homo sapiens, UniProt Q13324)
T1 construct: expressed in transfected cells; host or cells: Chinese Hamster Ovary (CHO) cells, transient transfection
T1 sequence (Q13324 1-438 isoform Q13324-2): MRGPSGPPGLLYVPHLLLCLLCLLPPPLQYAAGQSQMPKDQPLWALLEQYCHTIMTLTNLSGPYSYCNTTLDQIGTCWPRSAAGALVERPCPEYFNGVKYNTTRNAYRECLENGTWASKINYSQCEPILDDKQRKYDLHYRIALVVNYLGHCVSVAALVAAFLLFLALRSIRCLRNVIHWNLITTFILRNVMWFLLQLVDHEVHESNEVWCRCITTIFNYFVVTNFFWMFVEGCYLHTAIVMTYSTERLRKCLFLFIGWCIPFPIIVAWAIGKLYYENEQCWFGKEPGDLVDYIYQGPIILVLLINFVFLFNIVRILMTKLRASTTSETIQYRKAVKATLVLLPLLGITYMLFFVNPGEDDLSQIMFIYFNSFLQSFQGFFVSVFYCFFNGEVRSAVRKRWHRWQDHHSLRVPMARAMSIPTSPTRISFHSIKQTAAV
Experiment: human CRHR2b cell-based cAMP assay
Details: cAMP assay; Table 26, compounds of Example 9; read-out: hCRHR2b Average EC50
Experimental: CRHR agonistic activity is measured in a cell-based cAMP assay. Serial dilutions of the test peptides are made in assay buffer containing Hank's Balanced Salt Solution (HBSS, without phenol red) supplemented with 20 mM HEPES and 0.05% lactalbumin enzymatic hydrolysate (LAH) (“assay buffer”). […] A one to three dilution of the test peptides is used in both assays. Receptor over-expressing Chinese Hamster Ovary (CHO) cell line is used for the human CRHR2b assay. […] AF011406.1). Forty-eight hours after the transfection, the cells are centrifuged to remove the culture media and resuspended in fetal bovine serum containing 5% DMSO. They are cryofrozen and stored in vials in liquid nitrogen (20×10^6 cells/ml/vial). On the day of the assay, cells are thawed and resuspended in cold 30 ml culture media supplemented with 20 mM HEPES. The cells are then centrifuged to remove the media and washed once with HBSS supplemented with 20 mM HEPES. Finally, following the last centrifugation, the cells are resuspended in assay buffer. Thirty-thousand cells are used in the human CRHR2b assay for each treatment. The cells are dispensed into Costar 96-well black polystyrene half area EIA/RIA plates (Corning Incorporated, Corning, N.Y.) followed by the addition of the diluted peptides, each at a volume of 20 μL. The agonist induced cAMP levels are detected using a HTRF cAMP Dynamic 2 kit (CisBio, Bedford, Mass.). After incubation at 37° C. for 30 min, the assay is stopped by cell lysis via the addition of 20 μL of d2-labeled cAMP and followed by 20 μL of cryptate-labeled anti-cAMP antibody, as described by the manufacturer. Cellular cAMP (as a result of agonist stimulation) competes with the d2-labeled cAMP for binding to the antibody. HTRF detection is performed on an Envision plate reader (Perkin Elmer Life and Analytical Sciences, Waltham, Mass.) by measuring ratiometric emission at 620 and 665 nm after excitation at 320 nm. The data are converted to picomoles of cAMP using a standard curve obtained from the same assay performed with varying concentrations of unlabeled cAMP. […] The data are analyzed using a Curve Fitting Tool to calculate ED50. Numeric values shown below in Table 1 represent the mean of multiple runs (number of runs shown in parentheses) following the mean value±SEM.

CCCCCCCCCCCCCCCC(=O)N[C@@H](CCC(=O)NCCCC[C@H](NC(=O)[C@H](CCCCN)NC(=O)[C@H](CCC(=O)O)NC(=O)[C@H](CCC(N)=O)NC(=O)[C@H](CCC(=O)O)NC(=O)[C@H](CC(C)C)NC(=O)[C@H](CC(C)C)NC(=O)[C@@H](NC(=O)[C@H](CCC(N)=O)NC(=O)[C@H](CC(C)C)NC(=O)[C@H](CC(C)C)NC(=O)CNC(=O)[C@@H](NC(=O)[C@@H]1CCCN1C(=O)[C@@H](NC(=O)[C@H](CC(=O)O)NC(=O)[C@H](CC(C)C)NC(=O)[C@H](CO)NC(=O)[C@H](CC(C)C)NC(=O)[C@@H](NC(=O)[C@@H](N)[C@@H](C)CC)C(C)C)C(C)C)[C@@H](C)CC)[C@@H](C)CC)C(=O)N[C@@H](CCC(=O)O)C(=O)N[C@@H](CCCCN)C(=O)N[C@@H](CCC(=O)O)C(=O)N[C@@H](CCCCN)C(=O)N[C@@H](CCC(N)=O)C(=O)N[C@@H](CCC(N)=O)C(=O)N[C@@H](C)C(=O)N[C@H](C(=O)N[C@H](C(=O)N[C@@H](CC(N)=O)C(=O)N[C@@H](C)C(=O)N[C@@H](CCCNC(=N)N)C(=O)N[C@H](C(=O)N[C@@H](CC(C)C)C(=O)N[C@@H](C)C(=O)N[C@@H](CCCNC(=N)N)C(=O)N[C@H](C(N)=O)C(C)C)[C@@H](C)CC)[C@@H](C)O)[C@@H](C)O)C(=O)O [Compound 26] (H-IVLSLDVPIGLLQILLEQEKK([γGlu-Palmitoyl])EKEKQQATTNARILARV-NH2)
EC50: 15.6 nM

CCCCCCCCCCCCCCCC(=O)N[C@@H](CCC(=O)NCCCC[C@H](NC(=O)[C@H](CCC(N)=O)NC(=O)[C@H](CCCCN)NC(=O)[C@H](CCC(=O)O)NC(=O)[C@H](CCC(N)=O)NC(=O)[C@H](CCC(=O)O)NC(=O)[C@H](CC(C)C)NC(=O)[C@H](CC(C)C)NC(=O)[C@@H](NC(=O)[C@H](CCC(N)=O)NC(=O)[C@H](CC(C)C)NC(=O)[C@H](CC(C)C)NC(=O)CNC(=O)[C@@H](NC(=O)[C@@H]1CCCN1C(=O)[C@@H](NC(=O)[C@H](CC(=O)O)NC(=O)[C@H](CC(C)C)NC(=O)[C@H](CO)NC(=O)[C@H](CC(C)C)NC(=O)[C@@H](NC(=O)[C@@H](N)[C@@H](C)CC)C(C)C)C(C)C)[C@@H](C)CC)[C@@H](C)CC)C(=O)N[C@@H](CCCCN)C(=O)N[C@@H](CCC(=O)O)C(=O)N[C@@H](CCCCN)C(=O)N[C@@H](CCC(N)=O)C(=O)N[C@@H](CCC(N)=O)C(=O)N[C@@H](C)C(=O)N[C@H](C(=O)N[C@H](C(=O)N[C@@H](CC(N)=O)C(=O)N[C@@H](C)C(=O)N[C@@H](CCCNC(=N)N)C(=O)N[C@H](C(=O)N[C@@H](CC(C)C)C(=O)N[C@@H](C)C(=O)N[C@@H](CCCNC(=N)N)C(=O)N[C@H](C(N)=O)C(C)C)[C@@H](C)CC)[C@@H](C)O)[C@@H](C)O)C(=O)O [Compound 27] (H-IVLSLDVPIGLLQILLEQEKQK([γGlu-Palmitoyl])KEKQQATTNARILARV-NH2)
EC50: 31.5 nM

CCCCCCCCCCCCCCCC(=O)N[C@@H](CCC(=O)NCCCC[C@H](NC(=O)[C@H](CCC(=O)O)NC(=O)[C@H](CCC(N)=O)NC(=O)[C@H](CCCCN)NC(=O)[C@H](CCC(=O)O)NC(=O)[C@H](CCC(N)=O)NC(=O)[C@H](CCC(=O)O)NC(=O)[C@H](CC(C)C)NC(=O)[C@H](CC(C)C)NC(=O)[C@@H](NC(=O)[C@H](CCC(N)=O)NC(=O)[C@H](CC(C)C)NC(=O)[C@H](CC(C)C)NC(=O)CNC(=O)[C@@H](NC(=O)[C@@H]1CCCN1C(=O)[C@@H](NC(=O)[C@H](CC(=O)O)NC(=O)[C@H](CC(C)C)NC(=O)[C@H](CO)NC(=O)[C@H](CC(C)C)NC(=O)[C@@H](NC(=O)[C@@H](N)[C@@H](C)CC)C(C)C)C(C)C)[C@@H](C)CC)[C@@H](C)CC)C(=O)N[C@@H](CCC(=O)O)C(=O)N[C@@H](CCCCN)C(=O)N[C@@H](CCC(N)=O)C(=O)N[C@@H](CCC(N)=O)C(=O)N[C@@H](C)C(=O)N[C@H](C(=O)N[C@H](C(=O)N[C@@H](CC(N)=O)C(=O)N[C@@H](C)C(=O)N[C@@H](CCCNC(=N)N)C(=O)N[C@H](C(=O)N[C@@H](CC(C)C)C(=O)N[C@@H](C)C(=O)N[C@@H](CCCNC(=N)N)C(=O)N[C@H](C(N)=O)C(C)C)[C@@H](C)CC)[C@@H](C)O)[C@@H](C)O)C(=O)O [Compound 28] (H-IVLSLDVPIGLLQILLEQEKQEK([γGlu-Palmitoyl])EKQQATTNARILARV-NH2)
EC50: 83.2 nM

CCCCCCCCCCCCCCCC(=O)N[C@@H](CCC(=O)NCCCC[C@H](NC(=O)[C@H](CCCCN)NC(=O)[C@H](CCC(=O)O)NC(=O)[C@H](CCC(N)=O)NC(=O)[C@H](CCCCN)NC(=O)[C@H](CCC(=O)O)NC(=O)[C@H](CCC(N)=O)NC(=O)[C@H](CCC(=O)O)NC(=O)[C@H](CC(C)C)NC(=O)[C@H](CC(C)C)NC(=O)[C@@H](NC(=O)[C@H](CCC(N)=O)NC(=O)[C@H](CC(C)C)NC(=O)[C@H](CC(C)C)NC(=O)CNC(=O)[C@@H](NC(=O)[C@@H]1CCCN1C(=O)[C@@H](NC(=O)[C@H](CC(=O)O)NC(=O)[C@H](CC(C)C)NC(=O)[C@H](CO)NC(=O)[C@H](CC(C)C)NC(=O)[C@@H](NC(=O)[C@@H](N)[C@@H](C)CC)C(C)C)C(C)C)[C@@H](C)CC)[C@@H](C)CC)C(=O)N[C@@H](CCCCN)C(=O)N[C@@H](CCC(N)=O)C(=O)N[C@@H](CCC(N)=O)C(=O)N[C@@H](C)C(=O)N[C@H](C(=O)N[C@H](C(=O)N[C@@H](CC(N)=O)C(=O)N[C@@H](C)C(=O)N[C@@H](CCCNC(=N)N)C(=O)N[C@H](C(=O)N[C@@H](CC(C)C)C(=O)N[C@@H](C)C(=O)N[C@@H](CCCNC(=N)N)C(=O)N[C@H](C(N)=O)C(C)C)[C@@H](C)CC)[C@@H](C)O)[C@@H](C)O)C(=O)O [Compound 29] (H-IVLSLDVPIGLLQILLEQEKQEKK([γGlu-Palmitoyl])KQQATTNARILARV-NH2)
EC50: 64.7 nM

CCCCCCCCCCCCCCCC(=O)N[C@@H](CCC(=O)NCCCC[C@H](NC(=O)[C@H](CCC(=O)O)NC(=O)[C@H](CCCCN)NC(=O)[C@H](CCC(=O)O)NC(=O)[C@H](CCC(N)=O)NC(=O)[C@H](CCCCN)NC(=O)[C@H](CCC(=O)O)NC(=O)[C@H](CCC(N)=O)NC(=O)[C@H](CCC(=O)O)NC(=O)[C@H](CC(C)C)NC(=O)[C@H](CC(C)C)NC(=O)[C@@H](NC(=O)[C@H](CCC(N)=O)NC(=O)[C@H](CC(C)C)NC(=O)[C@H](CC(C)C)NC(=O)CNC(=O)[C@@H](NC(=O)[C@@H]1CCCN1C(=O)[C@@H](NC(=O)[C@H](CC(=O)O)NC(=O)[C@H](CC(C)C)NC(=O)[C@H](CO)NC(=O)[C@H](CC(C)C)NC(=O)[C@@H](NC(=O)[C@@H](N)[C@@H](C)CC)C(C)C)C(C)C)[C@@H](C)CC)[C@@H](C)CC)C(=O)N[C@@H](CCC(N)=O)C(=O)N[C@@H](CCC(N)=O)C(=O)N[C@@H](C)C(=O)N[C@H](C(=O)N[C@H](C(=O)N[C@@H](CC(N)=O)C(=O)N[C@@H](C)C(=O)N[C@@H](CCCNC(=N)N)C(=O)N[C@H](C(=O)N[C@@H](CC(C)C)C(=O)N[C@@H](C)C(=O)N[C@@H](CCCNC(=N)N)C(=O)N[C@H](C(N)=O)C(C)C)[C@@H](C)CC)[C@@H](C)O)[C@@H](C)O)C(=O)O [Compound 30] (H-IVLSLDVPIGLLQILLEQEKQEKEK([γGlu-Palmitoyl])QQATTNARILARV-NH2)
EC50: 12.4 nM
